Source: US20230160909A1, “NOVEL ION CONDUCTING CHANNEL FUSION SUBUNITS AND METHODS OF USE THEREOF” (UNIVERSITE DE BORDEAUX, priority 2020, published 2023)
Blank lines part the entries; values can stand above or below the compound they belong to.

Assays:
Format in all cases: cell-based
TRPV1 ion channel = target: T1, TRPV1 ion channel (Homo sapiens, UniProt Q8NER1); experiment: mNeonGreen-Calflux-nLuc-hTRPV1 BRET biosensor in HEK293T cells; conditions: for inhibition of CAPS-induced BRET increase: FIG. 8C/8E
T1 construct: expressed in transfected cells; host or cells: HEK293T

TRPM8 = target: T2, TRPM8 (Homo sapiens, UniProt Q7Z2W7); experiment: mNeonGreen-Calflux-nLuc-hTRPM8 BRET probe in HEK293T cells
T2 construct: expressed in transfected cells; host or cells: HEK293T
Procedure: (§1) B) Dose response curve of the TRPM8 agonist WS12 to trigger activation of the mNeon-Calflux-nLuc-hTRPM8 BRET probe transiently expressed in HEK293T cells that were pre-treated or not with 10 μM of the TRPM8 antagonist M8B hydrochloride. C) Dose response curve of the PIEZO1 agonist YODA1 to trigger activation of the mNeon-Calflux-nLuc-PIEZO1 BRET probe transiently expressed in HEK293T cells. Data represent the average of at least three independent experiments.
(§2) As described above in Examples 7 and 8, the intramolecular BRET biosensor probes hTRPM8-nLuc-Calflux-mGreen and hTRPV4-nLuc-Calflux-mGreen have been prepared wherein the DNA sequence encoding the human protein TRPM8 is fused in C-terminal to a calflux-based calcium BRET sensor, said sensor being sandwiched between the nano luciferase and mNeonGreen. In an effort to exemplify and validate the concept of Calcium sensor-based BRET probes fused to other ion channels, we first assessed whether the activity of two other TRPs ion channels, TRPV4 and TRPM8, could also be measured using such BRET probes. […] The measured half-maximal responses were consistent with those reported in the literature using patch-clamp or calcium-flux measurements on cells transiently expressing TRPV4 or TRPM8.

TRPV4 = target: T3, TRPV4 (Homo sapiens, UniProt Q9HBA0); experiment: mNeonGreen-Calflux-nLuc-hTRPV4 BRET probe in HEK293T cells
T3 construct: expressed in transfected cells; host or cells: HEK293T
Procedure: as §1, §2

PIEZO1 channel = target: T4, PIEZO1 channel (Homo sapiens, UniProt Q92508); experiment: mNeonGreen-Calflux-nLuc-PIEZO1 BRET probe in HEK293T cells; conditions: FIG. 9C
T4 construct: expressed in transfected cells; host or cells: HEK293T
Procedure: as §1
This confirms the functionality of our calcium sensor-based BRET Probe targeting PIEZO1.

KiR6.1 = target: T5, KiR6.1 (Homo sapiens, UniProt Q15842); experiment: mNeon-KBP-nLuc-KiR6.1 BRET probe in HEK293T cells; conditions: KCl depolarisation, FIG. 10B
T5 construct: expressed in transfected cells; host or cells: HEK293T
T5 sequence (Q15842 1-424): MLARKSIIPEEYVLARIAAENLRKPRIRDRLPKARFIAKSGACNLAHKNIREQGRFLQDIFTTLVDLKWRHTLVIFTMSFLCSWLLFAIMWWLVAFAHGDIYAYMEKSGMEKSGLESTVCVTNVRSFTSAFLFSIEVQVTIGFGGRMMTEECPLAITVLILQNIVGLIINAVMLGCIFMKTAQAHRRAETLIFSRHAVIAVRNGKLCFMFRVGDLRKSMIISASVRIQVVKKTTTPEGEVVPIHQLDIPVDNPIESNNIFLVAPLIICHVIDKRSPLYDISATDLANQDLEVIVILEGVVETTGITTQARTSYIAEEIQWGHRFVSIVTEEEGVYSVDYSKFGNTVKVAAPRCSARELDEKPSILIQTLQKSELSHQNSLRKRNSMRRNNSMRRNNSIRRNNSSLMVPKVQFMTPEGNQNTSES
Text: […] C) Kinetic measurement of the effect of Deltamethrine injection on the BRET measured from HEK293T cells transiently expressing mNeon-SOFI-nLuc-NaV1.8 BRET probe.
(§3) TREK1 BRET probe was activated using the chemical activator BL1249. Kir6.1 BRET probe was activated using KCl. Following depolarization, a strong outward potassium current is known to occur in HEK293T cells. Extracellular potassium ions would therefore be expected to re-enter the cells through ectopically-expressed inward rectifying ion channels such as KiR6.1, thereby increasing the local concentration of potassium in the intracellular vicinity of the KiR ion channel. NaV1.8 was activated in the presence of Deltamethrin, a pyrethroid toxin that is known to prolong the open state of tetrodotoxin-resistant sodium channels. […] While surprising, this observation could nonetheless be explained knowing that TREK1 trigger hyperpolarisation of the cell membrane by allowing potassium to leak outside cells, thus lowering the intracellular potassium concentration which will tend to balance with the extracellular potassium concentration. In that conditions, it has been shown that potassium will inwardly flow through TREK1 opened pore, which is in line with our observations.

NaV1.8 = target: T6, NaV1.8 (Homo sapiens, UniProt Q9Y5Y9); experiment: mNeon-SOFI-nLuc-NaV1.8 BRET probe in HEK293T cells; conditions: FIG. 10C
T6 construct: expressed in transfected cells; host or cells: HEK293T
Text: (§4) B) Kinetic measurement of the effect of KCl injection on the BRET measured from HEK293T cells transiently expressing mNeon-Calflux-nLuc-KiR6.1 BRET probe. C) Kinetic measurement of the effect of Deltamethrine injection on the BRET measured from HEK293T cells transiently expressing mNeon-SOFI-nLuc-NaV1.8 BRET probe.
as §3

[1] = system: potassium channel SK3 (KCa2.3); experiment: SK3-nLuc-KBP-mNeonGreen BRET probe in HEK293T cells; conditions: different concentrations, FIG. 5B
Text: FIG. 5: is a schematic representation of the SK3-nLuc-KBP-mNeonGreen probe (A) and the measure of BRET signal as obtained during the activation of the channel in presence of lonomycine (B).
The novel BRET probe has been constructed to measure the activity of potassium channel SK3 (KCa2.3) by coupling the cDNA of the SK3 channel to a potassium sensor (protein KBP, Ashrafet KU al., 2016, Structure 24, 741-749) sandwiched in between luciferase and mNeonGreen (SK3-nLuc-KBP-mNeonGreen, See FIG. 5A).
The BRET sensor is based on KBP which has been published (Bischof H et al, 2017, Nat Commun. 8(1):1422), but this sensor was never coupled to a channel in order to specifically measure the activity of the channel as presented in this invention.

TRPV1 channel = target: T7, TRPV1 channel (Homo sapiens, UniProt Q8NER1); experiment: hTRPV1-nLuc-Calflux-YFP (or mNeonGreen) BRET probe in HEK293T cells
T7 construct: expressed in transfected cells; host or cells: HEK293T

[2] = target: T8, NR1-nLuc-Calflux-YFP/NR2B ion channels (NMDA receptors) (Homo sapiens, UniProt Q05586+Q13224); experiment: NR1-nLuc-Calflux-YFP BRET probe coexpressed with NR2B in HEK293T cells; conditions: read-out: EC50 of activation of NR1-nLuc-Calflux-YFP/NR2B
T8 construct: expressed in transfected cells; host or cells: HEK293T
Text: (§5) FIG. 7: Dose-response for NMDA as measured in HEK293T cells transiently expressing the NR1-nLuc-Calflux-YFP probe alone (A) or coexpressed with NR2A (B) or NR2B (C) subunits.
(§6) We have constructed a novel BRET probe allowing to measure the activity of NMDA receptors by coupling the cDNA of the NR1 subunit to the BRET sensor nLuc-Calflux-YFP (FIG. 7). NMDA receptors are heterotetramers comprising 2 NR1 subunits and 2 NR2 or NR3 subunits. The subunits NR1, NR2 or NR3 expressed separately cannot form functional receptors.

NR1 subunit = target: T9, NR1 subunit (Homo sapiens, UniProt Q05586); experiment: NR1-nLuc-Calflux-YFP BRET probe expressed alone in HEK293T cells; conditions: increasing dose, FIG. 7A
T9 construct: expressed in transfected cells; host or cells: HEK293T
Text: as §5, §6

TREK1 = target: T10, TREK1 (Homo sapiens, UniProt O95069); experiment: mNeon-KBP-nLuc-TREK1 BRET probe in HEK293T cells; conditions: repeated activation with increasing quantities, FIG. 10A
T10 construct: expressed in transfected cells; host or cells: HEK293T
T10 sequence (O95069 1-426): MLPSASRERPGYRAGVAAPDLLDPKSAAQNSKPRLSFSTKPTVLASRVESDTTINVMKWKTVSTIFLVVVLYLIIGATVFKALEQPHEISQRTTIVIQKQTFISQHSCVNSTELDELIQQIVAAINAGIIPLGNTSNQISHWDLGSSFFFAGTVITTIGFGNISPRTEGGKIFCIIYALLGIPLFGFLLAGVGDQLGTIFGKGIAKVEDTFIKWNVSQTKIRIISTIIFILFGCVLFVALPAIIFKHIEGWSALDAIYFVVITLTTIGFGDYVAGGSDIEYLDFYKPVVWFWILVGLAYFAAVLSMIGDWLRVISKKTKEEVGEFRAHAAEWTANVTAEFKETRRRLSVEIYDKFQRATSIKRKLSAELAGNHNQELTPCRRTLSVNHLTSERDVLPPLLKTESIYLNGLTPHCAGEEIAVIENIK
Text: as §4, §3

[3] = HEK293T cells pre-treated with 10 μM antagonist

T1 sequence (Q8NER1 whole entry): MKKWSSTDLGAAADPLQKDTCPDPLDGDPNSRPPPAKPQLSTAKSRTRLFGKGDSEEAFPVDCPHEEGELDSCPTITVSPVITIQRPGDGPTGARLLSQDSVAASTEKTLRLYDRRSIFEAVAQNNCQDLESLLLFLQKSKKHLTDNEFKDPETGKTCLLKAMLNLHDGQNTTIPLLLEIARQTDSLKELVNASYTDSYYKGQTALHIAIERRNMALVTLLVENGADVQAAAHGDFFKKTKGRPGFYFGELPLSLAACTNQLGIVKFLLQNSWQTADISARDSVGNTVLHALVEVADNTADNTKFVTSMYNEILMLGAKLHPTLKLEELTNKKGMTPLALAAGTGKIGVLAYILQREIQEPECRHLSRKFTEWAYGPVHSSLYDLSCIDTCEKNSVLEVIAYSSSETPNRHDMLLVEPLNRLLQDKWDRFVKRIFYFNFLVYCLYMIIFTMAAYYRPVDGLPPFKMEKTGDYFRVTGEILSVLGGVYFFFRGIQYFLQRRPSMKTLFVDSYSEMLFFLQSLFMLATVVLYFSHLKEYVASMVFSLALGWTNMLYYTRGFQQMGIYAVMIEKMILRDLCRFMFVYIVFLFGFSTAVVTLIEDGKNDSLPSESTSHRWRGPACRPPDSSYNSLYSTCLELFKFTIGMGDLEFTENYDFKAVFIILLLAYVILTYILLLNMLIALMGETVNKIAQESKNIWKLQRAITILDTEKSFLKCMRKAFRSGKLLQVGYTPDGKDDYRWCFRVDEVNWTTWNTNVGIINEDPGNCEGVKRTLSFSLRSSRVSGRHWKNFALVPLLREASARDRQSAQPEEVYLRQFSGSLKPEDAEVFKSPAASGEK
T2 sequence (Q7Z2W7 whole entry): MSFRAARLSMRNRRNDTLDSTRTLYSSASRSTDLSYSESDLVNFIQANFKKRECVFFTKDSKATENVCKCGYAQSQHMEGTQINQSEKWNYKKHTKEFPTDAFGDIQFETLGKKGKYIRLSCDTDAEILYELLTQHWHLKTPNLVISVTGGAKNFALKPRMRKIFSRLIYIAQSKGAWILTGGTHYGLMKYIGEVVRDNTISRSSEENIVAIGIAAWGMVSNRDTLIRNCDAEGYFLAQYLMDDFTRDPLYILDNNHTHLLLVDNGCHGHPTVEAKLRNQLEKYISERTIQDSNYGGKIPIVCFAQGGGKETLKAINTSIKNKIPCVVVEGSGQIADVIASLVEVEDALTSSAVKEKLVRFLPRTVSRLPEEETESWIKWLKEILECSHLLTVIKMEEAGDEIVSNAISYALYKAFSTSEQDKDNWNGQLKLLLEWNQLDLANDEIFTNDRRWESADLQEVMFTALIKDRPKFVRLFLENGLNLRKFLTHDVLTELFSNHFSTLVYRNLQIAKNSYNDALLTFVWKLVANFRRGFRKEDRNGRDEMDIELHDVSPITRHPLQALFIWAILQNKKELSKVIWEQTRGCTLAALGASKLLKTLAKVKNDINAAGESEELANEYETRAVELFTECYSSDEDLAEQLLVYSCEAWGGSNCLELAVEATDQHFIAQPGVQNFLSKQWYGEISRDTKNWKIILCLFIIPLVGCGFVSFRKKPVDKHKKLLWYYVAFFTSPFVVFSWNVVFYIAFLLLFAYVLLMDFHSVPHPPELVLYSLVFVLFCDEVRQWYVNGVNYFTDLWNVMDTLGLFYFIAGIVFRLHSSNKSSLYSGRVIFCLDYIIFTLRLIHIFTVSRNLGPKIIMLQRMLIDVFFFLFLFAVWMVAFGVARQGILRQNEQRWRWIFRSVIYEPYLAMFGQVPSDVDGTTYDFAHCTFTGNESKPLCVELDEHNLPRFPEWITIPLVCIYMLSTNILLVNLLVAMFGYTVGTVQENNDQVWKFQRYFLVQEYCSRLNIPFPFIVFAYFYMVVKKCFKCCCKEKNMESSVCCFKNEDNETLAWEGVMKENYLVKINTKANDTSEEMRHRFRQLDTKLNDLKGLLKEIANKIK
T7 sequence (Q8NER1 whole entry): as the sequence (Q8NER1 whole entry) above
T3 sequence (Q9HBA0 whole entry): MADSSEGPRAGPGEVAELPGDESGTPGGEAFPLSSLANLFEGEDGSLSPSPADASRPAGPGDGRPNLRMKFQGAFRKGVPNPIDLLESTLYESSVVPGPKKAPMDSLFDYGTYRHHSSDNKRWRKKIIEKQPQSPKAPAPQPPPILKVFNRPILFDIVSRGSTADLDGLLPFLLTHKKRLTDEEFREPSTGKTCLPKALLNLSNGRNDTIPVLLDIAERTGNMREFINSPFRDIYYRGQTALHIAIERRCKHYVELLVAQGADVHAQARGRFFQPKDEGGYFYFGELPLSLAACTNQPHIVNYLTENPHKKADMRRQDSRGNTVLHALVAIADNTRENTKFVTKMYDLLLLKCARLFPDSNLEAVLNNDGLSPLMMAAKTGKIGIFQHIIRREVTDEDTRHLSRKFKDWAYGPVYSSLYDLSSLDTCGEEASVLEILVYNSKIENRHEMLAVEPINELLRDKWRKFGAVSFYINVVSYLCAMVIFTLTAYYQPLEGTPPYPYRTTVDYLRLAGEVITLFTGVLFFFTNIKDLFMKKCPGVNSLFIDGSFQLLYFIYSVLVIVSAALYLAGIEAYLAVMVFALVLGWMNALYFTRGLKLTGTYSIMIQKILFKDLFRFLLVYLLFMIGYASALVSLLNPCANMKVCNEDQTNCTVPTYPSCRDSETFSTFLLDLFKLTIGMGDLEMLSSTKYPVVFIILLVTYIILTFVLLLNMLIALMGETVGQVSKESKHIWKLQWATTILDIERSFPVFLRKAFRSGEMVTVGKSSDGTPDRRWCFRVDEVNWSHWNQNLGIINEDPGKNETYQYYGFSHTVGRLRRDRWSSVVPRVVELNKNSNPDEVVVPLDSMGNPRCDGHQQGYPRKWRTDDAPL
T8 sequence (Q13224 27-1484, other chains not shown): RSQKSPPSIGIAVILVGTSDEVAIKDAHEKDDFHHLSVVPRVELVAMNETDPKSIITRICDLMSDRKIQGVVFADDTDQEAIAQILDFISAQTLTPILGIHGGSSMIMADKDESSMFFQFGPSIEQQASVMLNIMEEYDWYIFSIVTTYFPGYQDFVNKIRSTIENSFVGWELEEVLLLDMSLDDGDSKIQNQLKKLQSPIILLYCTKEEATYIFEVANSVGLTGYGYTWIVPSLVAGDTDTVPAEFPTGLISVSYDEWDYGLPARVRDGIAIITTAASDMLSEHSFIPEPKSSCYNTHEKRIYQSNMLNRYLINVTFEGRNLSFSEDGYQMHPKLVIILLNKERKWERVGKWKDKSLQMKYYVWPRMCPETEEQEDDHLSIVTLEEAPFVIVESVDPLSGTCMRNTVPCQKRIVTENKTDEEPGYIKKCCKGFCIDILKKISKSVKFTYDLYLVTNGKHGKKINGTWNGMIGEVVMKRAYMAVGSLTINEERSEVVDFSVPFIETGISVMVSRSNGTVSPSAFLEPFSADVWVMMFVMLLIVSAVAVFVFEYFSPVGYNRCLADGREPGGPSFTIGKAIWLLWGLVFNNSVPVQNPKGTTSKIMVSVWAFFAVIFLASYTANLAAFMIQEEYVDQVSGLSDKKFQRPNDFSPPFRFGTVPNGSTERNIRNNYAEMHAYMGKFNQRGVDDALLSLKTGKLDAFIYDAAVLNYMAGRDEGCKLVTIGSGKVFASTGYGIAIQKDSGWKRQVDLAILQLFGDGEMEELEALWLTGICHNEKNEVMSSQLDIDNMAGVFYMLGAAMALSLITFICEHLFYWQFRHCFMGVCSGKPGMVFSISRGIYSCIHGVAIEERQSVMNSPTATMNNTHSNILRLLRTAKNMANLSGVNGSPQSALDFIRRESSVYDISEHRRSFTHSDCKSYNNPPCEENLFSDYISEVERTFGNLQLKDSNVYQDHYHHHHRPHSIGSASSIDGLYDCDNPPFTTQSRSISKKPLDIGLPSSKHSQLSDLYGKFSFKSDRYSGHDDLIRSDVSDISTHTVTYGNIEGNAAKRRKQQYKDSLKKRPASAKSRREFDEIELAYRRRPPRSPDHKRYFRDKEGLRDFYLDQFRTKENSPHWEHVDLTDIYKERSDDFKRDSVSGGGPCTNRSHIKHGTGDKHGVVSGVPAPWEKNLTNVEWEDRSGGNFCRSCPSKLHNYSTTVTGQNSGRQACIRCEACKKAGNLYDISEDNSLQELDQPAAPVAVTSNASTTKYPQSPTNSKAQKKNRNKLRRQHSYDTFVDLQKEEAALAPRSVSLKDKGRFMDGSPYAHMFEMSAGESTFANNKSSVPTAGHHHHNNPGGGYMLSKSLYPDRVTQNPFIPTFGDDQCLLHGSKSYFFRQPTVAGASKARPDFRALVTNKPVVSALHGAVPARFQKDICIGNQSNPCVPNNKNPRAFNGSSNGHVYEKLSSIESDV

- inhibition of CAPS-induced BRET increase (TRPV1 ion channel): failed to inhibit
Structure (SMILES): CC(C)NCCN(C(C)C)S(=O)(=O)c1ccc(Cl)cc1Cl [RN1734]

- change of BRET signal by agonist (TRPM8; HEK293T cells, FIG. 9B): dose-dependently increased
Structure (SMILES): COc1ccc(NC(=O)[C@@H]2C[C@H](C)CC[C@H]2C(C)C)cc1 [WS12]

Structure (SMILES): CC(C)C[C@H](NC(=O)c1cc2ccccc2s1)C(=O)N1CCN(C(=O)[C@H](CO)NS(=O)(=O)c2ccc(Cl)cc2Cl)CC1 [GSK1016790A]
- change of BRET signal by agonist (TRPV4; HEK293T cells, FIG. 9A): dose-dependently increased

- change of BRET signal by agonist (PIEZO1 channel): dose-dependently increased
Structure (SMILES): Clc1cccc(Cl)c1CSc1nnc(-c2cnccn2)s1 [YODA1]

- change of BRET signal (KiR6.1): increase of the BRET signal
Structure (SMILES): [Cl-].[K+] [KCl]

Structure (SMILES): CC1(C)[C@H](C(=O)O[C@H](C#N)c2cccc(Oc3ccccc3)c2)[C@@H]1C=C(Br)Br [Deltamethrin]
- change of BRET signal (NaV1.8): decrease of the BRET signal

Structure (SMILES): C[C@H](CCC(=O)O)C[C@H](C)C[C@H](C)C(=O)/C=C(\O)[C@H](C)C[C@H](C)C/C=C/[C@@H](C)[C@@H](O)[C@@H](C)[C@@H](O)C[C@@H]1CC[C@@](C)([C@H]2CC[C@@](C)([C@@H](C)O)O2)O1 [ionomycin]
- change of BRET signal (potassium efflux) [1]: decrease of the BRET signal
- change of BRET signal on stimulation (TRPV1 channel; TRPV1-nLuc-Calflux-YFP/mNeonGreen probe): marginal increase

Structure (SMILES): CN[C@H](CC(=O)O)C(=O)O [NMDA, N-methyl-D-aspartate]
- EC50 [2]: 12.3 µM
- modulation of BRET signal, NR1 probe alone (NR1 subunit): not modulated

Structure (SMILES): c1ccc(-c2nn[nH]n2)c(Nc2cccc3c2CCCC3)c1 [BL1249]
- change of basal BRET (TREK1): dose-dependently increased the basal BRET

Structure (SMILES): COc1cc(CN(CCN)C(=O)c2cccs2)ccc1OCc1ccccc1.Cl [MBB]
- effect on agonist (WS12) potency (TRPM8; [3]): right-shifted the corresponding agonist potency to higher values

Structure (SMILES): Cc1c(C(=O)Nc2cccc(C(F)(F)F)c2)cc(-c2ccccc2)n1CCCN1CCOCC1 [HC060747]
- effect on agonist (GSK1016790A) potency (TRPV4; [3]): right-shifted the corresponding agonist potency to higher values

- inhibition of CAPS-induced BRET increase (TRPV1 ion channel): inhibited the CAPS-induced BRET increase
Structure (SMILES): CC(=O)Nc1nc2c(Oc3cc(-c4ccc(C(F)(F)F)cc4)ncn3)cccc2s1 [AMG517]
- effect on dose-response to CAPS (antagonism) (TRPV1 channel; FIG. 4A): shifted the dose-response to CAPS to the right

Structure (SMILES): COc1cc(CNC(=O)CCCC/C=C/C(C)C)ccc1O [CAPS, Capsaïcin]
- change of basal BRET after exposure (TRPV1 ion channel; kinetic measurement, FIG. 8A): dramatically increased with first-order kinetics
